Laboratory results: ChEMBL document CHEMBL3227988, “Synthesis and antiviral activities of arabinofuranosyl-5-ethylpyrimidine nucleosides. Selective antiherpes activity of 1-(beta-D-arabinofuranosyl)-5-ethyluracil” (J Med Chem, 1979)
≈ marks a conversion by molar mass, not a printed value. Calls of active or inactive are those of the source. No cut-off for these calls is given here.

Columns and labels:
[1] = test system: Vaccinia virus; experiment: Antiviral activity against Vaccinia virus infected in human skin fibroblast cells assessed as inhibition of virus-induced cytopathogenicity at 200 ug/ml treated immediately after virus adsorption measured 2 to 3 days after virus infection; type: functional, organism-based; conditions: Orthopoxvirus vaccinia
[2] = test system: Vaccinia virus; experiment: Antiviral activity against Vaccinia virus infected in human skin fibroblast cells assessed as inhibition of virus-induced cytopathogenicity treated immediately after virus adsorption measured 2 to 3 days after virus infection; type: functional; conditions: Orthopoxvirus vaccinia

SMILES	inhibition [1]	MIC [2] [µg/mL]
CCc1cn([C@H]2O[C@H](CO)[C@@H](O)[C@@H]2O)c(=O)nc1N	inactive	–
Nc1ccn([C@@H]2O[C@H](CO)[C@@H](O)[C@@H]2O)c(=O)n1 [CYTARABINE]	–	0.02 (≈ 0.0822 µM)
O=c1ccn([C@@H]2O[C@H](CO)[C@@H](O)[C@@H]2O)c(=O)[nH]1 [ARAURIDINE]	–	> 200
CCc1cn([C@H]2O[C@H](CO)[C@@H](O)[C@@H]2O)c(=O)[nH]c1=O	inactive	–
Cc1cn([C@@H]2O[C@H](CO)[C@@H](O)[C@@H]2O)c(=O)[nH]c1=O	–	2 (≈ 7.75 µM)
CCc1cn([C@@H]2O[C@H](CO)[C@@H](O)[C@@H]2O)c(=O)nc1N	–	> 200
CCc1cn([C@@H]2O[C@H](CO)[C@@H](O)[C@@H]2O)c(=O)[nH]c1=O	–	> 200
